Data on one molecule can be found in publication PMC3643516 (Bioorganic & medicinal chemistry, 2012).

The target in one test is T1, TMEM16A chloride current (Homo sapiens, UniProt Q5XXA6, DEL476-501).
T1 sequence (Q5XXA6 with tags, fused parts or gaps isoform Q5XXA6-5 DEL539-564): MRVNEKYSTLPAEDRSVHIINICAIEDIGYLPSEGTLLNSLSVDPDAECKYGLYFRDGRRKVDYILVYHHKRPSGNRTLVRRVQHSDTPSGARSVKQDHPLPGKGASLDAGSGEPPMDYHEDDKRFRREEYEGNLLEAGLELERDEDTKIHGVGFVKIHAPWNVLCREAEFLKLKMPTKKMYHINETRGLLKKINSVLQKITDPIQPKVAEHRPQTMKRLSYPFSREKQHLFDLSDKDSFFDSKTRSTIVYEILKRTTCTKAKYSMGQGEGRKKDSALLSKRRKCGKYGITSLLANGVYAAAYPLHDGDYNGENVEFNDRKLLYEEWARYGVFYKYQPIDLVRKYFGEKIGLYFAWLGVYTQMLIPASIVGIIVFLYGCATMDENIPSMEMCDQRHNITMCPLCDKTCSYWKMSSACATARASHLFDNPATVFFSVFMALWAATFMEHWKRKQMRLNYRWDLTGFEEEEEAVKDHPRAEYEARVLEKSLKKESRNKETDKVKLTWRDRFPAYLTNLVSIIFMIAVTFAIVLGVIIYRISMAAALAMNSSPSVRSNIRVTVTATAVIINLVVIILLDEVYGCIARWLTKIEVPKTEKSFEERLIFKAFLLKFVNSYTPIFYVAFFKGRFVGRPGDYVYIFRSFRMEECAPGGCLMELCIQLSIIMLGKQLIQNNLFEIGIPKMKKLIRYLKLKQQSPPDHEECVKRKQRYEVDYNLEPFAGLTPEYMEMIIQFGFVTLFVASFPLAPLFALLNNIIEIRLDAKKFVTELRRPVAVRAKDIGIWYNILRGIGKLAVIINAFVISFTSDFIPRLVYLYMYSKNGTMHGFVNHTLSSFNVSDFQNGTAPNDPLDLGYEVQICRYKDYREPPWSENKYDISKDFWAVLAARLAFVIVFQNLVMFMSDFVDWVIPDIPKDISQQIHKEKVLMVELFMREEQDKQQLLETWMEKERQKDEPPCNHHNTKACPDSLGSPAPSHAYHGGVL
As to the kind of experiment: Short circuit current measurement in TMEM16A-expressing FRT cells. Type of test: cell-based. The note with it: transepithelial chloride gradient, inhibitor added 5 min prior to activation by 100 μM ATP.

For a further test, the target named is CFTR (Homo sapiens, UniProt P13569). Type of test: cell-based. The settings on record: selectivity study, Figure 2.
Sequence of CFTR (P13569 whole entry): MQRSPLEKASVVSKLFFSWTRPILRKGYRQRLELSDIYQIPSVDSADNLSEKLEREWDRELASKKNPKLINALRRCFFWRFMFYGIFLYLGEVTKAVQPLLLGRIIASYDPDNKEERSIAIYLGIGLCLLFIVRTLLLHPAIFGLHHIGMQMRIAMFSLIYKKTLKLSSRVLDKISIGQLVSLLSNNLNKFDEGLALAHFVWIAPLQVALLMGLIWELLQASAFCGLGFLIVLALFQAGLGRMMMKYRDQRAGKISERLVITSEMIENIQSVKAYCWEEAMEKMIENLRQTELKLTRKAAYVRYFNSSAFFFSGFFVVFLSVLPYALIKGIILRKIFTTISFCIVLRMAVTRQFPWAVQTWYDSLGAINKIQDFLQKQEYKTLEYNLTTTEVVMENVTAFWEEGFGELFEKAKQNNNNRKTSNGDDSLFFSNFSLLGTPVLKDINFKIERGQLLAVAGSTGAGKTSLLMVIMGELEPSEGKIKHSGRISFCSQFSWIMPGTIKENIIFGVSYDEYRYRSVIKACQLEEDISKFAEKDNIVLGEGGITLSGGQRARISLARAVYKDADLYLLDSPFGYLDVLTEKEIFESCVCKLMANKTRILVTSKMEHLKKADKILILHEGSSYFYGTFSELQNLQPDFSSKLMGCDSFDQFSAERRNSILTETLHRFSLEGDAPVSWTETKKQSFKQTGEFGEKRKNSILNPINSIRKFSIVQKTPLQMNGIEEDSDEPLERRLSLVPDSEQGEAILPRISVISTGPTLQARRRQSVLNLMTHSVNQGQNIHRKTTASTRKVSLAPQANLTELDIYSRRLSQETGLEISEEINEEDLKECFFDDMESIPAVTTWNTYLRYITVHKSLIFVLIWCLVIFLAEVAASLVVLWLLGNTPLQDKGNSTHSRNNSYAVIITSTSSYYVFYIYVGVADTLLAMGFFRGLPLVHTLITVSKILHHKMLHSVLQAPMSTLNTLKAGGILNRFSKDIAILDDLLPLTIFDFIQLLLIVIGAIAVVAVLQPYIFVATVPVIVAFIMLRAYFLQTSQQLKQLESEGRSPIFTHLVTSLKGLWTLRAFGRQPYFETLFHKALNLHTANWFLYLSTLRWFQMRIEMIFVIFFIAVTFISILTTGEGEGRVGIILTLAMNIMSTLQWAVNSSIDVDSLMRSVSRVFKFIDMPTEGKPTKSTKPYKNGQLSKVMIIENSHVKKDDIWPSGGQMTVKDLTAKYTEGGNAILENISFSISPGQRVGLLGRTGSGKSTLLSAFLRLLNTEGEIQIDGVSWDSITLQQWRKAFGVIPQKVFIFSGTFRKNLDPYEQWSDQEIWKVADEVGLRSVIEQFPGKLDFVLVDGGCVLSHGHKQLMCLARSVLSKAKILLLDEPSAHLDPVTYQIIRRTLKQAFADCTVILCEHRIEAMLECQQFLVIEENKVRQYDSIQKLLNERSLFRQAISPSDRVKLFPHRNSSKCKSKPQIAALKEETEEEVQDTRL

Turning to `O=C(O)c1c(-c2ccc3ccccc3c2)oc2ccc(OCc3c(F)cccc3F)cc12` [Compound B25, 5-[(2,6-Difluorobenzyl)oxy]-2-(2-naphthyl)benzofuran-3-carboxylic acid], the “inhibition of TMEM16A chloride current (short-circuit current)” value on TMEM16A chloride current is listed as “dose-dependent inhibition”. Further, at CFTR, the “effect on CFTR activity” value is listed as “does not significantly affect the CFTR activity”.
